According to the NIST ThermoML archive (doi:10.1016/j.jct.2012.12.006):
Several values for one entry are separate records, joined by “and”; a condition that tells them apart may be missing. Identical values can stand only once.

Tests used:
[1] = for vapor or sublimation pressure: Calculated from knudsen effusion weight loss; for Triple point temperature: DTA
[2] = Molar enthalpy of transition or fusion; conditions: DSC

NC(=O)c1ccccc1N [anthranilamide]
[1], Crystal
Conditions | vapor or sublimation pressure
335.11 K | 9.5e-05 kPa and 9.6e-05 kPa
337.17 K | 0.000121 kPa and 0.00012 kPa
339.17 K | 0.00015 kPa and 0.000149 kPa and 0.000152 kPa
341.1 K | 0.00019 kPa and 0.000188 kPa and 0.000187 kPa
343.16 K | 0.000237 kPa and 0.000232 kPa and 0.000236 kPa
345.16 K | 0.00029 kPa and 0.000285 kPa and 0.000298 kPa
347.11 K | 0.000359 kPa and 0.000357 kPa
349.16 K | 0.000445 kPa and 0.000435 kPa and 0.000441 kPa
351.17 K | 0.000539 kPa and 0.00053 kPa and 0.000545 kPa
353.12 K | 0.000667 kPa and 0.000663 kPa
355.16 K | 0.00082 kPa and 0.000826 kPa and 0.000806 kPa
357.16 K | 0.000993 kPa and 0.000994 kPa

Crystal
Conditions | Molar enthalpy of transition or fusion [kcal/mol] | Triple point temperature [K]
[1] | – | 384.4
[2] | 5 | –

NC(=O)c1cccc(N)c1 [3-aminobenzamide]
[1], Crystal
Conditions | vapor or sublimation pressure
358.14 K | 3.7e-05 kPa and 3.8e-05 kPa
360.19 K | 4.8e-05 kPa and 4.7e-05 kPa
362.14 K | 5.9e-05 kPa and 5.8e-05 kPa and 6e-05 kPa
364.14 K | 7.5e-05 kPa
366.17 K | 9.4e-05 kPa
368.15 K | 0.000116 kPa and 0.000114 kPa and 0.000117 kPa
370.15 K | 0.000144 kPa and 0.000146 kPa and 0.000143 kPa
372.19 K | 0.000179 kPa and 0.000177 kPa and 0.000176 kPa
374.13 K | 0.000218 kPa and 0.000216 kPa and 0.000222 kPa
376.15 K | 0.000276 kPa and 0.000275 kPa and 0.000274 kPa
378.18 K | 0.000342 kPa and 0.000338 kPa
380.14 K | 0.00042 kPa and 0.000406 kPa and 0.000405 kPa

Conditions | Molar enthalpy of transition or fusion, [2] [kcal/mol] | Triple point temperature, [1] [K]
Crystal 1 | 4.85 | 387.5
Crystal 2 | 0.789 | 352.4

NC(=O)c1ccc(N)cc1 [4-aminobenzamide]
[1], Crystal
Conditions | vapor or sublimation pressure
389.14 K | 0.000125 kPa and 0.000124 kPa
391.15 K | 0.000154 kPa and 0.000156 kPa and 0.000152 kPa
393.14 K | 0.000185 kPa and 0.000182 kPa and 0.000187 kPa
395.15 K | 0.000228 kPa and 0.000226 kPa
397.15 K | 0.000271 kPa and 0.000279 kPa
399.14 K | 0.00033 kPa and 0.000332 kPa and 0.000335 kPa
401.16 K | 0.000407 kPa and 0.000411 kPa
403.15 K | 0.000497 kPa and 0.000495 kPa and 0.000498 kPa
405.14 K | 0.000597 kPa and 0.000591 kPa and 0.000602 kPa
407.19 K | 0.000728 kPa and 0.000721 kPa
409.2 K | 0.000873 kPa and 0.000868 kPa and 0.000883 kPa
411.15 K | 0.001054 kPa and 0.001042 kPa and 0.001008 kPa

Crystal
Conditions | Molar enthalpy of transition or fusion [kcal/mol] | Triple point temperature [K]
[1] | – | 457.6
[2] | 7.17 | –
